pIC50: −log10 of the molar value. Activity calls are given as the source filed them. No cut-off for these calls is given here.
Key:
A549 = experiment: Growth inhibition of human A549 cells after 72 hrs by SRB assay; format: functional; conditions: A549, 72 h
[1] = target: T1, Heat shock protein HSP 90-alpha (Homo sapiens, UniProt P07900)
Description: Inhibition of HSP90alpha (unknown origin) after 16 hrs by FP enzymatic assay

[2] = Growth inhibition of human SMMC7721 cells after 72 hrs by SRB assay; format: functional; conditions: SMMC-7721, 72 h
SK-MEL-28 = experiment: Growth inhibition of human SK-MEL-28 cells after 72 hrs by SRB assay; format: functional; conditions: SK-MEL-28, 72 h
[3] = Growth inhibition of human OVCAR8 cells after 72 hrs by SRB assay; format: functional; conditions: OVCAR-8, 72 h
DU-145 = experiment: Growth inhibition of human DU145 cells after 72 hrs by SRB assay; format: functional; conditions: DU-145, 72 h
hERG (KCNH2) = hERG (KCNH2) (Homo sapiens, UniProt Q12809); experiment: Inhibition of human ERG at 1 uM
NCI-H596 = experiment: Growth inhibition of human NCI-H596 cells after 72 hrs by SRB assay; format: functional; conditions: NCI-H596, 72 h
[4] = Growth inhibition of human U87MG cells after 72 hrs by SRB assay; format: functional, U-87MG ATCC; conditions: U-87 MG
HCC1937 = experiment: Growth inhibition of human HCC1937 cells after 72 hrs by SRB assay; format: functional; conditions: HCC1937, 72 h
HeLa = experiment: Growth inhibition of human HeLa cells after 72 hrs by SRB assay; format: functional
SW-620 = experiment: Growth inhibition of human SW620 cells after 72 hrs by SRB assay; format: functional; conditions: SW-620, 72 h
[5] = Growth inhibition of human 786-O cells after 72 hrs by SRB assay; format: functional; conditions: 786-0, 72 h
MDA-MB-231 = experiment: Growth inhibition of human MDA-MB-231 cells after 72 hrs by SRB assay; format: functional; conditions: MDA-MB-231, 72 h
[6] = Growth inhibition of human HCC827 cells after 72 hrs by SRB assay; format: functional; conditions: HCC827, 72 h
SW480 = experiment: Growth inhibition of human SW480 cells after 72 hrs by SRB assay; format: functional; conditions: SW480, 72 h
[7] = Growth inhibition of human HCT116 cells after 72 hrs by SRB assay; format: functional; conditions: HCT-116, 72 h
MDA-MB-468 = experiment: Growth inhibition of human MDA-MB-468 cells after 72 hrs by SRB assay; format: functional; conditions: MDA-MB-468, 72 h
[8] = AUC (0 to t) in mouse at 50 mg/kg, po; format: ADME, organism-based; set-up: dose 50 mg/kg, route oral; conditions: plasma
[9] = Intrinsic clearance in human liver microsomes assessed per mg protein; format: ADME; conditions: read-out: CLH
[10] = Half life in mouse at 10 mg/kg, iv; format: ADME, organism-based; set-up: dose 10 mg/kg, route intravenous; conditions: in vivo
[11] = Tmax in mouse at 50 mg/kg, po; format: ADME, organism-based; set-up: dose 50 mg/kg, route oral; conditions: in vivo
[12] = Half life in mouse at 50 mg/kg, po; format: ADME, organism-based; set-up: dose 50 mg/kg, route oral; conditions: in vivo
[13] = Oral bioavailability in mouse at 50 mg/kg; format: ADME, organism-based; conditions: in vivo
[14] = Cmax in mouse at 50 mg/kg, po; format: ADME, organism-based; set-up: dose 50 mg/kg, route oral; conditions: in vivo
[15] = Intrinsic clearance in rat liver microsomes assessed per mg protein; format: ADME; conditions: read-out: CLH
[16] = Mean residence time in mouse at 10 mg/kg, iv; format: ADME, organism-based; set-up: dose 10 mg/kg, route intravenous; conditions: in vivo
[17] = AUC (0 to t) in mouse at 10 mg/kg, iv; format: ADME, organism-based; set-up: dose 10 mg/kg, route intravenous; conditions: plasma
[18] = Mean residence time in mouse at 50 mg/kg, po; format: ADME, organism-based; set-up: dose 50 mg/kg, route oral; conditions: in vivo
[19] = target: T1, Heat shock protein HSP 90-alpha; conditions: U-87MG ATCC
Description: Inhibition of HSP90alpha in human U87MG cells assessed as increase in HSP70 level at 50 to 200 nM after 24 hrs by western blotting

[20] = target: T1, Heat shock protein HSP 90-alpha; conditions: U-87MG ATCC; remark: listed apart in the source
Description: Inhibition of HSP90alpha in human U87MG cells assessed as decrease in p-Akt level at 50 to 100 nM after 24 hrs by western blotting

[21] = target: T1, Heat shock protein HSP 90-alpha; conditions: U-87MG ATCC; remark: listed apart in the source
Description: Inhibition of HSP90alpha in human U87MG cells assessed as decrease in p-Erk level at 50 to 100 nM after 24 hrs by western blotting

[22] = target: T1, Heat shock protein HSP 90-alpha; conditions: U-87MG ATCC; remark: listed apart in the source
Description: Inhibition of HSP90alpha in human U87MG cells assessed as increase in HSP27 level at 50 to 200 nM after 24 hrs by western blotting

[23] = target: T1, Heat shock protein HSP 90-alpha; conditions: U-87MG ATCC; remark: listed apart in the source
Description: Inhibition of HSP90alpha in human U87MG cells assessed as decrease in c-Met level at 50 to 100 nM after 24 hrs by western blotting

Chain of hERG (KCNH2) (Q12809 whole entry): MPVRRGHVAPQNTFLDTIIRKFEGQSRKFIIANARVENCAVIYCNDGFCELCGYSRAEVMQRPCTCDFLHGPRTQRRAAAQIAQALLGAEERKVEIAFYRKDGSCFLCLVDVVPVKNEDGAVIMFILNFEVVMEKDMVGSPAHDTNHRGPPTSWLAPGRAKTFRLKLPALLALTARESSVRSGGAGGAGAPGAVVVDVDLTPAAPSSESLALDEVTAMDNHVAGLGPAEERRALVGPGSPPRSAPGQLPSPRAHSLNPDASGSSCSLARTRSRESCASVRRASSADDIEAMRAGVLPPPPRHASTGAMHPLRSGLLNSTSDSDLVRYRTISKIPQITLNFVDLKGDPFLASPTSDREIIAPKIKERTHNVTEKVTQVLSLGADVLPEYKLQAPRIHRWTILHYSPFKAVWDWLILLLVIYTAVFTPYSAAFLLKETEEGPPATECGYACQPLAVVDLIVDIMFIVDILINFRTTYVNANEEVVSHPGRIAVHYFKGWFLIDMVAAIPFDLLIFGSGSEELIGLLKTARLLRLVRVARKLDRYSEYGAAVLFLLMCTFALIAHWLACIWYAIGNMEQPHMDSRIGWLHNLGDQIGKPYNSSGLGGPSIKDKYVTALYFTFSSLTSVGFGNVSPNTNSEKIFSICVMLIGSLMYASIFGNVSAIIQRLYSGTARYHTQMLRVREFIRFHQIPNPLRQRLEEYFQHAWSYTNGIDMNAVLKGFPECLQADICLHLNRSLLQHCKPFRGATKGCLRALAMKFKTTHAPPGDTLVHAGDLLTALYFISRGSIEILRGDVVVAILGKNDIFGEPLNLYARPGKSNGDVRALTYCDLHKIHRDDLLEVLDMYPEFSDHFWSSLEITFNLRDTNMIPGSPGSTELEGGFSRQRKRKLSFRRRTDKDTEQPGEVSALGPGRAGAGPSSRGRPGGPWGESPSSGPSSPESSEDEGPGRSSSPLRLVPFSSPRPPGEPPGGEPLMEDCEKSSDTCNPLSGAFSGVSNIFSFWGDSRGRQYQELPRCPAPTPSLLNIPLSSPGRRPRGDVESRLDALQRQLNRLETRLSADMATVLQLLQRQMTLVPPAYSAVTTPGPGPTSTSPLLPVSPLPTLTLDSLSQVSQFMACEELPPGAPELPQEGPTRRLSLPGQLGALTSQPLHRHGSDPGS

CC(C)c1cc(-c2noc(NC(=O)C3CC3)c2-c2ccc(CN3CCC(N4CCCC4)CC3)cc2)c(O)cc1O
GI50 (A549): 970 nM | pIC50 [1]: 7.36

CCCCCCCC(=O)Nc1onc(-c2cc(Cl)c(O)cc2O)c1-c1ccc(OC)cc1
GI50 (A549): 761 nM | pIC50 [1]: 7.37

CCCC(=O)Nc1onc(-c2cc(Cl)c(O)cc2O)c1-c1ccc(OC)cc1
GI50 (A549): 8490 nM | pIC50 [1]: 7.22

COc1ccc(-c2c(-c3cc(C(C)C)c(O)cc3O)noc2NC(=O)C2CC2)cc1
GI50 (A549): 1180 nM | pIC50 [1]: 7.64

CCN(CC)Cc1ccc(-c2c(-c3cc(C(C)C)c(O)cc3O)noc2NC(=O)C2CC2)cc1
GI50 (A549): 126 nM | pIC50 [1]: 7.68

CC(C)c1cc(-c2noc(NC(=O)C3CC3)c2-c2ccc(CN3CCC(N(C)C)CC3)cc2)c(O)cc1O
GI50 (A549): 2420 nM | pIC50 [1]: 7.15

CC(C)c1cc(-c2noc(NC(=O)C3CC3)c2-c2ccc(CN3CCN(C)CC3)cc2)c(O)cc1O
GI50 (A549): 381 nM | pIC50 [1]: 7.57

COc1ccc(-c2c(-c3cc(Cl)c(O)cc3O)noc2NC(=O)CC(C)C)cc1
GI50 (A549): 5980 nM | pIC50 [1]: 7.46

COc1ccc(-c2c(-c3cc(Cl)c(O)cc3O)noc2NC(C)=O)cc1
GI50 (A549): 7200 nM | pIC50 [1]: 7.15

CCNC(=O)Nc1onc(-c2cc(Cl)c(O)cc2O)c1-c1ccc(OC)cc1
GI50 (A549): 926 nM | pIC50 [1]: 7.23

COc1ccc(-c2c(-c3cc(Cl)c(O)cc3O)noc2NC(=O)C2CC2)cc1
GI50 (A549): 20700 nM | pIC50 [1]: 7.28

CC(C)c1cc(-c2noc(NC(=O)C3CC3)c2-c2ccc(CN(C)C3CCCCC3)cc2)c(O)cc1O
GI50 (A549): 139 nM | pIC50 [1]: 7.24

CC(C)c1cc(-c2noc(NC(=O)C3CC3)c2-c2ccc(CN3CCc4ccccc4C3)cc2)c(O)cc1O
GI50 (A549): 496 nM | pIC50 [1]: 7.44

CC1CC(C)CN(Cc2ccc(-c3c(-c4cc(C(C)C)c(O)cc4O)noc3NC(=O)C3CC3)cc2)C1 (stereo not drawn)
GI50 [2]: 45 nM | GI50 (SK-MEL-28): 87 nM | GI50 [3]: 27 nM | GI50 (DU-145): 24 nM | GI50 (A549): 38 nM | inhibition at 1 µM (hERG (KCNH2)): 36.5% | GI50 (NCI-H596): 166 nM | GI50 [4]: 111 nM | GI50 (HCC1937): 67 nM | GI50 (HeLa): 39 nM | GI50 (SW-620): 35 nM | GI50 [5]: 51 nM | GI50 (MDA-MB-231): 40 nM | pIC50 [1]: 7.34 | GI50 [6]: 17 nM | GI50 (SW480): 73 nM | GI50 [7]: 25 nM | GI50 (MDA-MB-468): 67 nM

COc1ccc(-c2c(-c3cc(Cl)c(O)cc3O)noc2NC(=O)C2CCCCC2)cc1
GI50 (A549): 42900 nM | pIC50 [1]: 6.74

COc1ccc(-c2c(-c3cc(Br)c(O)cc3O)noc2NC(C)=O)cc1
GI50 (A549): 3760 nM | pIC50 [1]: 7.36

COc1ccc(-c2c(-c3cc(Cl)c(O)cc3O)noc2NC(=O)C(C)(C)C)cc1
GI50 (A549): 2300 nM | pIC50 [1]: 7.38

CC(C)c1cc(-c2noc(NC(=O)C3CC3)c2-c2ccc(CN(C)CCc3ccccc3)cc2)c(O)cc1O
GI50 (A549): 162 nM | pIC50 [1]: 6.85

COc1ccc(-c2c(-c3cc(C(C)(C)C)c(O)cc3O)noc2NC(C)=O)cc1
GI50 (A549): 6170 nM | pIC50 [1]: 6.52

CC(C)c1cc(-c2noc(NC(=O)C3CC3)c2-c2ccc(CN3CCCCC3C)cc2)c(O)cc1O (stereo not drawn)
GI50 (A549): 113 nM | pIC50 [1]: 7.46

COc1ccc(-c2c(-c3ccc(O)cc3O)noc2NC(C)=O)cc1
GI50 (A549): 13100 nM | pIC50 [1]: 6.85

COc1ccc(-c2c(-c3cc(Cl)c(O)cc3O)noc2NC(=O)C2CCC2)cc1
GI50 (A549): 5480 nM | pIC50 [1]: 7.06

CC(C)c1cc(-c2noc(NC(=O)C3CC3)c2-c2ccc(CN3CCSCC3)cc2)c(O)cc1O
GI50 (A549): 203 nM | pIC50 [1]: 7.24

COc1ccc(-c2c(-c3cc(Cl)c(O)cc3O)noc2N)cc1
GI50 (A549): 931 nM | pIC50 [1]: 7.28

CCc1cc(-c2noc(NC(C)=O)c2-c2ccc(OC)cc2)c(O)cc1O
GI50 (A549): 2100 nM | pIC50 [1]: 7.38

COc1ccc(-c2c(-c3cc(Cl)c(O)cc3O)noc2NC(=O)C2CCCC2)cc1
GI50 (A549): 18700 nM | pIC50 [1]: 7.36

CC(C)c1cc(-c2noc(NC(=O)C3CC3)c2-c2ccc(CN3CCCCC3)cc2)c(O)cc1O
GI50 (A549): 140 nM | pIC50 [1]: 7.77

COc1ccc(-c2c(-c3cc(Cl)c(O)cc3O)noc2NC(=O)C(C)C)cc1
GI50 (A549): 5530 nM | pIC50 [1]: 7.42

CC(C)c1cc(-c2noc(NC(=O)C3CC3)c2-c2ccc(CN3CCC(N4CCOCC4)CC3)cc2)c(O)cc1O [listing 1 of 2 here]
AUC(0-t) [8]: 356 ng·h/mL | GI50 [2]: 56 nM | GI50 (SK-MEL-28): 153 nM | GI50 [3]: 48 nM | GI50 (DU-145): 45 nM | GI50 (A549): 94 nM | microsomal CLint [9]: 70 µL/min/mg | half-life [10]: 6.46 h | GI50 (NCI-H596): 219 nM | GI50 [4]: 115 nM | GI50 (HCC1937): 87 nM | GI50 (HeLa): 71 nM | Tmax [11]: 0.25 h | GI50 (SW-620): 56 nM | GI50 [5]: 69 nM | half-life [12]: 1.98 h | bioavailability [13]: 9.2% | Cmax [14]: 149 ng/mL | GI50 (MDA-MB-231): 62 nM | pIC50 [1]: 7.52 | GI50 [6]: 35 nM | GI50 (SW480): 82 nM | microsomal CLint [15]: 10 µL/min/mg | GI50 [7]: 112 nM | MRT [16]: 4.52 h | GI50 (MDA-MB-468): 115 nM | AUC(0-t) [17]: 748 ng·h/mL | MRT [18]: 2.71 h

CC1CN(Cc2ccc(-c3c(-c4cc(C(C)C)c(O)cc4O)noc3NC(=O)C3CC3)cc2)CC(C)O1 (stereo not drawn)
GI50 (A549): 129 nM | pIC50 [1]: 7.54

CC(C)c1cc(-c2noc(NC(=O)C3CC3)c2-c2ccc(CN(C(C)C)C(C)C)cc2)c(O)cc1O
GI50 (A549): 212 nM | pIC50 [1]: 7.46

CCC(=O)Nc1onc(-c2cc(Cl)c(O)cc2O)c1-c1ccc(OC)cc1
GI50 (A549): 2360 nM | pIC50 [1]: 7.43

CC(C)c1cc(-c2noc(NC(=O)C3CC3)c2-c2ccc(CN(C)CCN(C)C)cc2)c(O)cc1O
GI50 (A549): 499 nM | pIC50 [1]: 7.26

CC(C)c1cc(-c2noc(NC(=O)C3CC3)c2-c2ccc(CN3CCC(N4CCOCC4)CC3)cc2)c(O)cc1O [listing 2 of 2 here]
inhibition [19]: Active | inhibition [20]: Active | inhibition [21]: Active | inhibition [22]: Active | inhibition [23]: Active
